Four compounds from publication PMC11988556, “Combined Cytotoxic Effects of the Fungicide Azoxystrobin and Common Food-Contaminating Mycotoxins” (Foods, 2025) can be followed below.

Assay [1] relates to HepG2 cells. The assay can be described thus: resazurin reduction cytotoxicity assay, with CI-isobologram analysis of mixtures. It is filed as cell-based, human.
In assay [2] the test system is HepG2 cells. Briefly: MTT cytotoxicity assay, with CI-isobologram analysis of mixtures. Conditions: for reduction of cell viability at the higher concentration tested: MTT, highest concentration of the combination experiment. Type of assay: cell-based, human.
The mark [3] stands for this setting: read-out: Dm (median-effect concentration).
[4] abbreviates: HepG2, 24 h, resazurin, highest concentration of the combination experiment.
Setting [5] is: HepG2, 24 h exposure, resazurin assay, spread in brackets, read-out: IC50.
Setting [6] is: resazurin method, HepG2, 24 h, median-effect equation, read-out: Dm (median-effect concentration).
The mark [7] stands for this setting: IC50 from MTT individual cytotoxicity experiments, used to set combination ratios, 24 h, read-out: IC50 Concentration.
[8] abbreviates: MTT method, HepG2, 24 h, median-effect equation, read-out: Dm (median-effect concentration).

Take `CC(=O)OC[C@]12C[C@H](OC(=O)CC(C)C)C(C)=C[C@H]1O[C@@H]1[C@H](O)[C@@H](OC(C)=O)[C@@]2(C)[C@]12CO2` [T2, T-2 toxin]: in the assay on HepG2 cells [1], the “reduction of cell viability at the higher concentration tested” value (shortened to “reduction of cell viability”) stood at 40%. The IC50 with HepG2 cells [1] (setting [3]) amounted to 0.1 µM; in the assay with HepG2 cells [1] (read-out: IC50), 0.051 µM; in the assay with HepG2 cells [2] (setting [3]) it was 0.06 µM; in the assay with HepG2 cells [2] (read-out: IC50 Concentration) it was 0.059 µM.

As to `C[C@@H]1Cc2c(Cl)cc(C(=O)N[C@@H](Cc3ccccc3)C(=O)O)c(O)c2C(=O)O1` [OTA, ochratoxin A], the “reduction of cell viability” value in the assay on HepG2 cells [1] (setting [4]) was 44%; in the assay with HepG2 cells [2] (HepG2, 24 h) it was 59%. Moreover, the IC50 with HepG2 cells [1] (Homo sapiens, HepG2, 24 h exposure, resazurin assay, spread in brackets, read-out: IC50) was found to be 147 µM; in the assay with HepG2 cells [1] (Homo sapiens, resazurin method, HepG2, 24 h, median-effect equation, read-out: Dm (median-effect concentration)), 87.6 µM; in the assay on HepG2 cells [2] (Homo sapiens, HepG2, IC50 from MTT individual cytotoxicity experiments, used to set combination ratios, 24 h, read-out: IC50 Concentration) it was 195 µM; with HepG2 cells [2] (Homo sapiens, MTT method, HepG2, 24 h, median-effect equation, read-out: Dm (median-effect concentration)) it was 57.1 µM.

On to `CO/C=C(/C(=O)OC)c1ccccc1Oc1cc(Oc2ccccc2C#N)ncn1` [AZX, azoxystrobin], for which the “reduction of cell viability” value turned out to be 27% with HepG2 cells [1] (setting [4]) and 43% in the assay on HepG2 cells [2] (HepG2, 24 h). For the same compound, the IC50 stood at 231 µM in the assay on HepG2 cells [1] (setting [5]), 638 µM in the assay with HepG2 cells [1] (setting [6]), 206 µM with HepG2 cells [2] (setting [7]) and 284 µM in the assay on HepG2 cells [2] (setting [8]).

Regarding `CC1=C[C@H]2O[C@@H]3[C@H](O)C[C@](C)([C@@]2(CO)[C@H](O)C1=O)[C@]31CO1` [DON, deoxynivalenol], the “reduction of cell viability” value turned out to be 59% in the assay with HepG2 cells [1] (setting [4]) and 69% in the assay on HepG2 cells [2] (HepG2, 24 h). Moreover, the IC50 with HepG2 cells [1] (setting [5]) is 6.61 µM; in the assay on HepG2 cells [1] (setting [6]) it was 5.33 µM; with HepG2 cells [2] (setting [7]) it was 9.39 µM; with HepG2 cells [2] (setting [8]) it was 2.74 µM.
